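These data come from cells grown in 96-well plates and exposed to compound for 48 hours at five concentrations. GI50 marks 50% less growth.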 Activity calls are given as the source filed them. Cut-off read from the data, not from the text of the source: active = GI50 up to about 1.1 µM and inactive = higher.
Tests used:
Test in all cases: DTP human tumour cell line panel, 48 h
[1] = tested on: OVCAR-8
[2] = tested on: CCRF-CEM
[3] = tested on: M14
[4] = tested on: EKVX
[5] = tested on: T47D
[6] = tested on: MCF7
[7] = tested on: NCI-H460
[8] = tested on: MDA-N
[9] = tested on: SK-OV-3
[10] = tested on: OVCAR-5
[11] = tested on: NCI-H23
[12] = tested on: SW-620
[13] = tested on: MDA-MB-231
[14] = tested on: K562
[15] = tested on: SK-MEL-2
[16] = tested on: HOP-92

Measured: GI50

N#CC(c1ccccc1)(c1ccccc1)[C@@H](c1ccccc1)[C@H](Cc1ccccc1)NS(=O)(=O)c1ccccc1
inactive: [1] > 100 µM | [2] > 100 µM | [3] > 100 µM | [4] > 100 µM | [5] > 100 µM | [6] > 100 µM | [7] 66.7 µM | [8] > 100 µM | [9] > 100 µM | [10] > 100 µM | [11] > 100 µM | [12] > 100 µM | [13] > 100 µM | [14] > 100 µM | [15] > 100 µM

O=C1CSC2(CC(/C=C/c3cccs3)=NN2c2cccc(S(=O)(=O)O)c2)N1c1nc2ccccc2s1 (centres undefined)
inactive: [1] > 100 µM | [2] 33 µM | [3] > 100 µM | [4] 52.6 µM | [5] 21 µM | [16] 41.2 µM | [6] 54.1 µM | [7] 67.5 µM | [8] > 100 µM | [10] > 100 µM | [11] 42.7 µM | [12] > 100 µM | [13] > 100 µM | [14] 49.4 µM | [15] > 100 µM

CC1(C)O[C@@H]2[C@@H](COC(C)(C)O[C@H]2C2SCCCS2)O1
inactive: [1] > 100 µM | [3] > 100 µM | [5] > 100 µM | [16] 92.7 µM | [6] > 100 µM | [7] > 100 µM | [8] > 100 µM | [9] > 100 µM | [10] > 100 µM | [11] > 100 µM | [12] > 100 µM | [13] > 100 µM | [14] > 100 µM | [15] > 100 µM

CN(C)/N=N/c1nc2c(c(=O)n(C)c(=O)n2C)n1CC(O)CO (centres undefined)
inactive: [1] > 100 µM | [2] > 100 µM | [3] > 100 µM | [4] > 100 µM | [5] 38.7 µM | [6] 10.6 µM | [7] > 100 µM | [8] > 100 µM | [9] > 100 µM | [10] > 100 µM | [11] > 100 µM | [12] > 100 µM | [13] > 100 µM | [14] > 100 µM | [15] > 100 µM

COc1ccc(-c2cc(-c3ccc(Nc4ccnc5cc(C(F)(F)F)ccc45)cc3)[nH]c(=O)c2C#N)cc1
inactive: [1] > 77.4 µM | [2] > 24 µM | [3] 27.2 µM | [4] 98.9 µM | [5] 45.7 µM | [16] 49.7 µM | [6] > 88.7 µM | [7] > 100 µM | [8] > 34.5 µM | [10] > 66.5 µM | [11] > 38.4 µM | [12] > 100 µM | [13] 24.9 µM | [14] 33.8 µM | [15] > 50.6 µM

Cc1ccc(S(=O)(=O)NNC(=O)Nc2ccc([N+](=O)[O-])cc2)cc1
inactive: [1] 17.4 µM | [2] 45.3 µM | [3] 89.5 µM | [4] > 100 µM | [5] 2.65 µM | [16] 43.8 µM | [6] 35.6 µM | [7] 23.9 µM | [8] > 100 µM | [10] > 100 µM | [11] 36.7 µM | [12] 33 µM | [13] 22.1 µM | [14] 38.4 µM | [15] > 100 µM

CCOP(=O)(OCC)/C(C#N)=C/c1ccc(-c2cc(C(F)(F)F)cc(C(F)(F)F)c2)o1
inactive: [1] 16.2 µM | [2] 9.75 µM | [3] 10.2 µM | [4] 20.7 µM | [5] 11.9 µM | [16] 8.41 µM | [6] 6.3 µM | [7] 6.38 µM | [8] 13.3 µM | [10] 13.3 µM | [11] 13 µM | [12] 14.9 µM | [13] 13.7 µM | [14] 3.3 µM | [15] 20.3 µM

— ChEMBL document CHEMBL1201862, “PubChem BioAssay data set” (2004)
